Laboratory results from patent US20140329863A1 (priority 2011, published 2014).
In brackets after ≈: the same amount, converted by molar mass. Read-outs that look alike come from different tables or passages of the source.

What was measured:
PrP^C in T98G cells [1] = assay type: cell-based, human
PrP^C in IMR32 cells [2] = assay type: cell-based, human
[3] = tested on: PrP^Sc in dividing ScN2a-c13 cells
[4] = tested on: PrP^Sc in nondividing ScN2a-c13 cells; assay type: cell-based, mouse
IMR32 cells = assay type: cell-based, human
T98G cells = assay: cells; assay type: cell-based, human; settings: calcein, T98G cells
PrP^C in T98G cells [5] = assay type: cell-based, human; remark: listed apart in the source
PrP^C in IMR32 cells [6] = assay type: cell-based, human; remark: listed apart in the source
[7] = Tolerability / toxicity on repeated dosing in mice
Binding in mouse plasma = settings: 1 μM; mean ± SD, n = 3 (warfarin n = 2)
[8] = tested on: PrP^Sc in dividing ScN2a-cl3 cells; assay type: cell-based, mouse
Binding in human plasma = settings: 1 μM; mean ± SD, n = 3 (warfarin n = 2)
prion-infected mice = settings: literature reports; cited from earlier work
[9] = Fraction unbound in cell-culture media; assay type: in vitro ADME; settings: 1 μM; mean ± SD, n = 3
[10] = Hepatic microsomal stability, human; settings: for half-life at 1 μM: human, pH 7.4
[11] = Toleration studies in mice
[12] = Multidose (three-day) pharmacokinetics in liquid diet in FVB mice; settings: FVB, mouse, in vivo, 100 mg/kg/day, Brain concentrations, 3 days, FVB mice
[13] = Hepatic microsomal stability, rat
[14] = Single-dose pharmacokinetics in FVB mice (oral gavage, IV); settings: female, FVB, mouse, po, 10 mg/kg
[15] = Hepatic microsomal stability, mouse; settings: for half-life at 1 μM: pH 7.4
[16] = tested on: PrP^Sc in dividing ScN2a-cl3 cells; settings: previously demonstrated; cited from earlier work
[17] = tested on: PrP^Sc in nondividing ScN2a-cl3 cells; settings: previously demonstrated; cited from earlier work
Media solubility = assay type: physicochemical; settings: cell media
Method: To evaluate media solubility, two protocols were followed. In the first, solutions were prepared as described above. After overnight equilibration, samples were centrifuged for 30 min, without filtration, and supernatant analyzed by HPLC/UV/VIS with reference to three standards (5, 100, 250 μM). In the second protocol, turbidimetric analysis, dilutions of the compound of interest were prepared in media with target concentrations of 5, 10, 20, 50, 100, 200 and 300 μM. Media without solute was included for background. These solutions were evaluated using a light scattering technique and a Nepheloskan instrument.

PrP^C in N2a-c13 cells = assay type: cell-based, mouse; settings: read-out: EC50 (μM) ELISA in N2a-cl3 cells (value in parentheses)
[18] = CD-1, mouse, mouse liver microsomes

In the case of O=C(O)c1cccc2c1NC(C(=O)O)C1CC=CC21 (stereo not shown) [IND-0001270, 3a, 4,5,9b-tetrahydro-3H cyclopenta[c]quinoline-4,6-dicarboxylic acid], the “activity on PrP^C (in words)” value (PrP^C in T98G cells [1]) is reported as “active”, the “activity on PrP^C (in words)” value (PrP^C in IMR32 cells [2]; IMR32 cells) is reported as “active” and the “antiprion activity (in words)” value ([3]; dividing ScN2a-c13 cells) is reported as “active”. For the same compound, the “activity on PrP^Sc in nondividing cells (in words)” value [4] was “active”.
With O=C(Cc1ccc(Br)cc1)NCc1ccccc1 [IND-0061769] the “% Inhibition: Calcein (IMR32)” value (IMR32 cells) was 21%, the “% Inhibition: Calcein (T98G)” value (T98G cells) was 38% and the EC50 (PrP^C in T98G cells [1]; read-out: EC50, PrP^C) was 1.84 µM. For the same compound, the EC50 (PrP^C in IMR32 cells [2]; read-out: EC50, PrP^C, IMR32 cells) was 2.05 µM, the “% Inhibition: SPC (T98G)” value (PrP^C in T98G cells [5]) was “MW: 304.2 % Inhibition: SPC (IMR32): 46 Calcein: 21 SPC (T98G): 63 Calcein: 38” and the “% Inhibition: SPC (IMR32)” value (PrP^C in IMR32 cells [6]) was “MW: 304.2 % Inhibition: SPC (IMR32): 46 Calcein: 21 SPC (T98G): 63 Calcein: 38”.
With C(=N\Nc1ccc(-c2cnco2)cc1)/c1ccncc1 [Compound B, (E)-5-(4-(2-(pyridin-4-ylmethylene)hydrazinyl)phenyl)oxazole, reference compound] the “dose with lethal toxicity” value ([7]; administered chronically in vivo for eight days) was greater than 110 mg/kg/day, the “dose with lethal toxicity” value ([7]; administered in vivo) was no less than 150 mg/kg/day and the tolerated dose ([7]; at least eight days) was “up to 100 mg/kg/day”. For the same compound, the “brain concentration as multiple of EC50” value ([7]; doses up to 100 mg/kg/day for at least eight days) was greater than 10 ×EC50, the “Unbound (%), Mouse Plasma” value (Binding in mouse plasma) was 9.06 ± 2.31% and the EC50 ([8]; Table 29, 2-AMT analogs tested for potency, usually n = 3 or more) was 0.246 µM. The EC50 ([8]; read-out: EC50, PrP^Sc ELISA in dividing ScN2a-c13 cells) was 0.4 µM, the “Unbound (%), Human Plasma” value (Binding in human plasma) was 2.10 ± 1.11% and the “effect in prion-infected mice” value (prion-infected mice) was “extended the incubation times”. For the same compound, the “Unbound (%), Cell-culture Media” value [9] was 36.5 ± 3.30%, the “% remaining after a 60-min incubation, Human” value ([10]; human liver microsomes) was 68% and the half-life at 1 μM ([10]; human liver microsomes) was greater than 60 min. For the same compound, the Toleration ([11]; 25, 50, 100, and 150 mg/kg for 3 days in liquid rodent diet, FVB mice) was “All doses were tolerated, with no animals showing lethal toxicity”, the animals dying ([11]; ≧150 mg/kg/day for 8 days) was 2/4 and the concentration at 3 days [12] was roughly 10 µM. For the same compound, the half-life at 1 μM ([13]; Sprague-Dawley, rat, […], pH 7.4) was greater than 60 min, the “% remaining after a 60-min incubation, Rat” value ([13]; […]) was 77% and the Kp ([14]; brain and plasma) was 0.5. The bioavailability ([14]; plasma) was 25 to 27%, the half-life at 1 μM [15, 18] was 30 min and the “Hepatic Extraction Ratio Mouse” value ([15]; mouse) was 0.8. For the same compound, the “% remaining after a 60-min incubation, Mouse” value ([15]; mouse liver microsomes) was 29% and the “activity on PrP^Sc in nondividing cells (in words)” value [4] was “inactive”.
For CCN(CC)CCCC(C)Nc1c2ccc(Cl)cc2nc2ccc(OC)cc12 (stereo not shown) [quinacrine], the “effect in prion-infected mice” value (prion-infected mice) is listed as “ineffective”, the “PrP^C levels, HTS of FDA-approved drugs” value (PrP^C in IMR32 cells [2]) is listed as “lowered” and the “PrP^Sc levels, HTS of FDA-approved drugs” value ([3]; HTS of 1,700 FDA-approved drugs) is listed as “lowered”. For the same compound, the “Clearance of PrP^Sc in dividing cells” value [16] was “rapidly clears dividing cells of PrP^Sc” and the “Clearance of PrP^Sc in nondividing prion-infected cells” value [17] was “relatively ineffective”.
With COc1ccc(Nc2nc(-c3ccc(OC)c(OC)c3)cs2)nc1 [IND44, [4-(3,4-Dimethoxy-phenyl)-thiazol-2-yl]-(5-methoxy-pyridin-2-yl)-amine] the “solubility in media (in words)” value (Media solubility) was “lower solubility”, the solubility (physchem; FaSSIF) was less than 1 µM and the solubility (physchem; cell culture media, plasma or biological fluid) was 3 µM (≈ 1.03 µg/mL). The solubility (physchem; pH 2 (HCl) buffer, pH 2, simulated gastric fluid) was 1 µM (≈ 0.343 µg/mL), the solubility (physchem; pH 7.4 (phosphate) buffer, pH 7.4, aqueous buffer) was less than 1 µM and the “% remaining after a 60-min incubation, Human” value ([10]; human liver microsomes) was 48%. The half-life at 1 μM ([10]; human liver microsomes) was 58 min, the half-life at 1 μM ([10]; liver microsomes) was 58 min and the “t1/2 in min, Rat” value ([13]; […]) was 45 min. The “% remaining after a 60-min incubation, Rat” value ([13]; […]) was 39%, the “t1/2 Rat” value ([13]; rat microsomes) was 45 min and the “solubility in FaSSIF (in words)” value (fasted-state simulated intestinal fluid) was “lower solubility”. The “solubility at pH 2.0 (in words)” value (pH 2 (HCl) buffer) was “lower solubility”, the “solubility at pH 7.4 (in words)” value (pH 7.4 phosphate buffer) was “lower solubility” and the half-life at 1 μM ([15]; CD-1, mouse, liver microsomes) was 29 min. For the same compound, the half-life at 1 μM [15, 18] was 29 min and the “% remaining after a 60-min incubation, Mouse” value ([15]; mouse liver microsomes) was 24%.
In the case of NC(=O)c1ccccc1NC(=O)c1cccnc1N1CCCCC1 [IND87406], the EC50 (PrP^C in T98G cells [5]; read-out: EC50 (μM) ELISA potency, PrP^C in T98G cells) is reported as 1.12 µM, the “Hepatic Extraction Ratio Human” value ([10]; human liver microsomes, predicted hepatic extraction) is reported as 0.65 and the half-life at 1 μM ([10]; human liver microsomes) is reported as 37.1 min. For the same compound, the EC50 (PrP^C in N2a-c13 cells) was 3.11 µM, the “Hepatic Extraction Ratio Mouse” value ([15]; mouse liver microsomes, predicted hepatic extraction) was 0.91 and the half-life at 1 μM ([15]; mouse, mouse liver microsomes) was 6.35 min.
